These results are taken from ChEMBL document CHEMBL1146215, “Computer-aided rational drug design: a novel agent (SR13668) designed to mimic the unique anticancer mechanisms of dietary indole-3-carbinol to block Akt signaling” (J Med Chem, 2007).

Structures are written as SMILES. Calls of active or inactive are those of the source. The calls are words filed in the database; no cut-off is given here.

For data set [1], the system named is MCF7. Kind of data set: Antitumor activity against MCF7 cells. In kind it is functional, cell-based. As to conditions: Homo sapiens.
The test system of data set [2] is MCF7. The data set is described as follows: Inhibition of tumor growth in MCF7 cells xenografted BALB/c mouse at 10 mg/kg/day, po after 30 days. The class given is functional, Homo sapiens. The note with it: MCF7, 720 h.
Data set [3] deals with MCF7. The data set is described as follows: Inhibition of tumor growth in MCF7 cells xenografted BALB/c mouse at 10 mg/kg/day, ip after 30 days. The class given is functional, Homo sapiens. The note with it: 720 h, route intraperitoneal.
Data set [4] concerns the target RAC-beta serine/threonine-protein kinase (Homo sapiens) (UniProt P31751). The data set is described as follows: Inhibition of Akt2.
The species entered for data set [5] is Mus musculus. Kind of data set: Genotoxicity by mouse micronucleus test. In kind it is toxicity, organism-based. As to conditions: in vivo.
Another data set deals with MDA-MB-231. Kind of data set: Inhibition of tumor growth in MDA-MB-231 cells xenografted po dosed mouse. The class given is functional, organism-based. As to conditions: Homo sapiens.
In data set [6] the test system is Rattus norvegicus. Kind of data set: Toxicity in Sprague-Dawley rat at 600 mg/kg/day, po after 14 days. The class given is organism-based. Also noted: route oral. The note with it: in vivo, 336 h.
For data set [7], the system named is Mus musculus. The data set is described as follows: Toxicity assessed as effect on body weight of mouse at 500 mg/kg/day, po after 14 days. In kind it is organism-based. Also noted: route oral. As to conditions: in vivo, 336 h.
Data set [8] has as its system PC-3. Kind of data set: Inhibition of serum-stimulated AKT phosphorylation in PC3 cells. The class given is cell-based. The note with it: Homo sapiens.
Data set [9] concerns the target Glycogen synthase kinase-3 beta (Homo sapiens) (UniProt P49841). Kind of data set: Inhibition of GSK3-beta activity in PC3 cells. In kind it is cell-based. The note with it: PC-3.
For data set [10], the target named is RAC-alpha serine/threonine-protein kinase (Homo sapiens) (UniProt P31749). The data set is described as follows: Inhibition of Akt1.
The target in data set [11] is RAC-gamma serine/threonine-protein kinase (Homo sapiens) (UniProt Q9Y243). Kind of data set: Inhibition of Akt3.
Data set [12] has as its target T1, 3-phosphoinositide-dependent protein kinase 1 (Homo sapiens) (UniProt O15530).
T1 sequence (whole entry): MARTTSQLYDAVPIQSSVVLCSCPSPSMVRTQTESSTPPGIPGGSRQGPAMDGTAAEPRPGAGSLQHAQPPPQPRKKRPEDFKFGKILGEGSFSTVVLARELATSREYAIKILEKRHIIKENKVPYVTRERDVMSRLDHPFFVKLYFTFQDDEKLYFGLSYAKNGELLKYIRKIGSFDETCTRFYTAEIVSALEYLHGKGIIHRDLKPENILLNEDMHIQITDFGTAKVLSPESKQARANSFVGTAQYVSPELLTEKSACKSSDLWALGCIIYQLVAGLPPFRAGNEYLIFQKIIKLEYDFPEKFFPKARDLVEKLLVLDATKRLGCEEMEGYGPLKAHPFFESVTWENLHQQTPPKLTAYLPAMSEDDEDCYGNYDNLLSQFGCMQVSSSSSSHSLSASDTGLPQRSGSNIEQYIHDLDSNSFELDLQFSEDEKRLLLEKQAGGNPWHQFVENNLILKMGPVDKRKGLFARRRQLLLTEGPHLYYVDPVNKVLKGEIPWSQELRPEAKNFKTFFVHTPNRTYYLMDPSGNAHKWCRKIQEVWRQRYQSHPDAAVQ
Kind of data set: Inhibition of PDK1.

The species entered for another data set is Homo sapiens. Kind of data set: Inhibition of PI3K.
Data set [13] deals with Mus musculus. Kind of data set: Toxicity assessed as effect on fasting glucose level in mouse at 500 mg/kg/day, po after 14 days. In kind it is organism-based. Also noted: route oral. As to conditions: in vivo, 336 h.
In data set [14] the test system is Rattus norvegicus. Kind of data set: Toxicity in Sprague-Dawley rat at 25 mg/kg/day, po after 14 days. As to conditions: in vivo, 336 h. On the set-up: route oral. In kind it is organism-based.
In another data set the test system is MDA-MB-468. The data set is described as follows: Inhibition of serum-stimulated AKT phosphorylation in MDA-MB-468 cells. In kind it is cell-based. The note with it: Homo sapiens.
For data set [15], the system named is Rattus norvegicus. The data set is described as follows: Toxicity in Sprague-Dawley rat at 200 mg/kg/day, po after 14 days. The class given is organism-based. On the set-up: route oral. As to conditions: in vivo, 336 h.
Data set [16] relates to PC-3. The data set is described as follows: Inhibition of tumor growth in PC3 cells xenografted po dosed mouse. The class given is functional, organism-based. As to conditions: Homo sapiens.
In the next data set the test system is SK-OV-3. The data set is described as follows: Inhibition of tumor growth in SKOV3 cells xenografted po dosed mouse. The class given is functional, organism-based. As to conditions: Homo sapiens.
The test system of data set [17] is Rattus norvegicus. Kind of data set: Toxicity in Sprague-Dawley rat at 75 mg/kg/day, po after 14 days. As to conditions: in vivo, 336 h. The class given is organism-based. On the set-up: route oral.

Chain of Glycogen synthase kinase-3 beta (Homo sapiens) (P49841 whole entry, looked up): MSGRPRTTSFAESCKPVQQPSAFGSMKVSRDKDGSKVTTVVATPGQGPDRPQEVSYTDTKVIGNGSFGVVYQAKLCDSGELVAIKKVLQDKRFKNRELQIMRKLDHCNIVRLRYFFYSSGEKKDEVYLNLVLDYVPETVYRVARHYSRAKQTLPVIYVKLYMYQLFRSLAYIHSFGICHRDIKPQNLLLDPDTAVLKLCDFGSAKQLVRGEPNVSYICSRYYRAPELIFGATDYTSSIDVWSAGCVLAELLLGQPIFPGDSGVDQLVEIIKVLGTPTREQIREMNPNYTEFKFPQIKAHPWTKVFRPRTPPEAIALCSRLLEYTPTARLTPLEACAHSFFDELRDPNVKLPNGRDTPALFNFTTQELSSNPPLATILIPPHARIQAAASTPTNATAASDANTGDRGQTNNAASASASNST
Chain of RAC-beta serine/threonine-protein kinase (Homo sapiens) (P31751 whole entry): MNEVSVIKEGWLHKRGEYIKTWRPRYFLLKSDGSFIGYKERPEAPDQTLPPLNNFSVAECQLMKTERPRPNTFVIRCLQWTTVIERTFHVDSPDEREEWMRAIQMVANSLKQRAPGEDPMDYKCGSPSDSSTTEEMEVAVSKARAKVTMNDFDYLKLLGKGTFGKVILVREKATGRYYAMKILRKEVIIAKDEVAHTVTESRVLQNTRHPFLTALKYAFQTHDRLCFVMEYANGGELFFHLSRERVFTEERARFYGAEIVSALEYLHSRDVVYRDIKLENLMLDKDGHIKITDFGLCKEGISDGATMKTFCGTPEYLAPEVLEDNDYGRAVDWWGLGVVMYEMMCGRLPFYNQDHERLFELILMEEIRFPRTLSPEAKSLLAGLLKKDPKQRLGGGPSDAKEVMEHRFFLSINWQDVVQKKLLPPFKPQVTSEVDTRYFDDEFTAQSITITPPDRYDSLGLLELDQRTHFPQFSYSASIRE
Chain of RAC-alpha serine/threonine-protein kinase (Homo sapiens) (P31749 whole entry): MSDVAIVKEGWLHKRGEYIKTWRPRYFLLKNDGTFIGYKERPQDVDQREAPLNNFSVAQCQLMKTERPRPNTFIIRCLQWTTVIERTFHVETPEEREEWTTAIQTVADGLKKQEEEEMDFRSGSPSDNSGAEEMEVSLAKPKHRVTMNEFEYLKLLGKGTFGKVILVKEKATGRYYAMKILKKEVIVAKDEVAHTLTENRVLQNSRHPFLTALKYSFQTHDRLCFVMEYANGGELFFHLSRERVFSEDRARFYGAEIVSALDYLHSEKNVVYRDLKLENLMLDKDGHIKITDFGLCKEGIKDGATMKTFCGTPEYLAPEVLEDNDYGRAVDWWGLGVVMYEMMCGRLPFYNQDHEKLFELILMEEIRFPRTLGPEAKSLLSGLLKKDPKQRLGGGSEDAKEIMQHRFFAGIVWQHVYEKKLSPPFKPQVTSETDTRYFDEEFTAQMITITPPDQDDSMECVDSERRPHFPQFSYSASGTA
Chain of RAC-gamma serine/threonine-protein kinase (Homo sapiens) (Q9Y243 whole entry): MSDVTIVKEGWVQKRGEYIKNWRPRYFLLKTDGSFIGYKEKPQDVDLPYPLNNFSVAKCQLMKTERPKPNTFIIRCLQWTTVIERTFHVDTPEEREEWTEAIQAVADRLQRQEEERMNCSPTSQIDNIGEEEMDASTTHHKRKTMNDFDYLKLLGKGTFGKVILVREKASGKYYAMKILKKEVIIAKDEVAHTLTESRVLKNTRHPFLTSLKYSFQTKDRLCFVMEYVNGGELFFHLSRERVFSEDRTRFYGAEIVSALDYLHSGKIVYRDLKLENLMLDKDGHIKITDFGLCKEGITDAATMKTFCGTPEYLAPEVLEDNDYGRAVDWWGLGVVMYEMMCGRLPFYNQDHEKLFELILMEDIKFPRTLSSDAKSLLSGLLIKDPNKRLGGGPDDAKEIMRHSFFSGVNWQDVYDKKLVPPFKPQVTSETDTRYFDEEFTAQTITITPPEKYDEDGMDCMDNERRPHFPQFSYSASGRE

In the data set on MCF7 [1], `CCOC(=O)c1ccc2[nH]cc(Cc3c[nH]c4ccc(C(=O)OCC)cc34)c2c1` registered an IC50 of 1750 nM.
On to `CN(C)C(=O)c1ccc2[nH]cc(Cc3c[nH]c4ccc(C(=O)N(C)C)cc34)c2c1`, for which the IC50 in the data set on MCF7 [1] is > 10000 nM.
`CC(C)(c1c[nH]c2ccccc12)c1c[nH]c2ccccc12`: in the data set on MCF7 [1], the IC50 is > 10000 nM.
Still for that read-out and setting: under `CCOC(=O)c1ccc2[nH]c3c(C(F)(F)C(F)(F)C(F)(F)F)c4[nH]c5ccc(C(=O)OCC)cc5c4cc3c2c1` stands 90 nM.
Consider `c1cc(-c2c[nH]c3ccccc23)cc(-c2c[nH]c3ccccc23)c1`, for which the IC50 in the data set on MCF7 [1] is > 10000 nM.
In the data set with MCF7 [1], `CCOC(=O)Oc1c2[nH]c3ccc(C(=O)OCC)cc3c2cc2c1[nH]c1ccc(C(=O)OCC)cc12` came in with an IC50 of 110 nM. This counts as sub-micromolar.
The molecule `c1ccc2[nH]c(Cc3cc4ccccc4[nH]3)cc2c1` had an IC50 in the data set with MCF7 [1] of 940 nM.
On to `CCOC(=O)Oc1c2[nH]c3ccccc3c2cc2c1[nH]c1ccccc12`, for which the inhibition in vivo at 10 mg/kg/day in the data set with MCF7 [2] stood at 26%; in the data set on MCF7 [3], 43%. Moreover, inhibition in the data set with MCF7 [1] was half-maximal at 80 nM (IC50).
`O=C(O)c1ccc2[nH]cc(Cc3c[nH]c4ccc(C(=O)O)cc34)c2c1`: the IC50 in the data set on MCF7 [1] was > 10000 nM.
The molecule `C=C(c1c[nH]c2ccccc12)c1c[nH]c2ccccc12` registered an IC50 with MCF7 [1] of 3300 nM. This counts as single-digit micromolar.
For the molecule `CS(=O)(=O)c1ccc2[nH]cc(Cc3c[nH]c4ccc(S(C)(=O)=O)cc34)c2c1`, the IC50 in the data set with MCF7 [1] was > 10000 nM.
In the data set on MCF7 [1], `c1ccc2c(Cc3c[nH]c4ccccc34)c[nH]c2c1` [ARUNDINE] yielded an IC50 of 5500 nM. In other words, the single-digit micromolar range.
Consider `CCOC(=O)c1ccc2[nH]c3c(OC)c4[nH]c5ccc(C(=O)OCC)cc5c4cc3c2c1` [SR-13668], for which the result (in data set [4]; in data set [10]; in [11]; in data set [12]; in the data set listed under Homo sapiens) was inactive. Also, the Activity result in the data set filed under Mus musculus [5] is recorded as “Non-toxic”; in the data set with Rattus norvegicus [6], “Non-toxic”; in the data set with Mus musculus [7], “Active”; in the data set with Mus musculus [13], “Active”; with Rattus norvegicus [14], “Non-toxic”; in the data set on Rattus norvegicus [15], “Non-toxic”. The Activity result with Rattus norvegicus [17] is “Non-toxic”. Moreover, the outcome (in the data set on MDA-MB-231; in the data set on PC-3 [8]; in [9]; in the data set with MDA-MB-468; in the data set with PC-3 [16]; in the data set on SK-OV-3) was Active. Moreover, the midpoint of inhibition in the data set with MCF7 [1], the IC50, lay at 190 nM.
